Reference: ChEMBL document CHEMBL6127017, “Regulation of exercise ability and glycolipid metabolism by synthetic SR9009 analogues as new REV-ERB-α agonists” (Bioorg Med Chem, 2024)
Values belong to the compound of their own block, whether it stands above or below them.

Tests used:
[1] = system: HEK293; assay: Agonist activity at Flag-tagged REV-ERBalpha (unknown origin) expressed in HEK293 cells co-expressing BMAL1 (unknown origin) assessed as relative strength index by measuring ratio of inhibitory rate of BMAL1 incubated for 24 hrs by Dual Glo-Luciferase assay relative to SR9009; assay type: cell-based; conditions: Homo sapiens
[2] = Cytotoxicity against MDCK cells; assay type: toxicity, cell-based, Canis lupus familiaris; conditions: dog, read-out: TC50 (the source's name)
[3] = Agonist activity at Flag-tagged REV-ERBalpha (unknown origin) expressed in HEK293 cells co-expressing BMAL1 (unknown origin) inhibition of BMAL1 incubated for 24 hrs by Dual Glo-Luciferase assay; assay type: cell-based; conditions: Homo sapiens, HEK293, 24 h
[4] = system: Mus musculus; assay: Effect on exercise tolerance in high-fat diet-induced obese C57BL/6 mouse assessed as total running time at 200 mg/kg, IG for 7 days (reference value: 2954.50 sec); assay type: functional; conditions: time 7 day
[5] = system: Mus musculus; assay: Effect on exercise tolerance in high-fat diet-induced obese C57BL/6 mouse assessed as total running distance at 200 mg/kg, IG for 7 days; assay type: functional; conditions: time 7 day
[6] = Metabolic stability in human liver microsomes assessed as half life at 1 uM incubated upto 60 mins by LC-MS/MS analysis; assay type: ADME, Microsome
[7] = Metabolic stability in human liver microsomes assessed as intrinsic clearance at 1 uM incubated upto 60 mins by LC-MS/MS analysis; assay type: ADME, Microsome; conditions: read-out: CLH
[8] = Metabolic stability in human liver microsomes assessed as hepatic extraction ratio at 1 uM incubated upto 60 mins by LC-MS/MS analysis; assay type: ADME, Microsome; conditions: read-out: ERH
[9] = system: Mus musculus; assay: Effect on blood lipid level in high-fat diet-induced obese C57BL/6 mouse assessed as decrease in blood glucose level at 200 mg/kg, IG for 7 days (reference value: 10.77 mmol/L); assay type: functional; conditions: time 7 day
[10] = system: Mus musculus; assay: Effect on blood lipid level in high-fat diet-induced obese C57BL/6 mouse assessed as total cholesterol level at 200 mg/kg, IG for 7 days (reference value: 4.69 mmol/L); assay type: functional; conditions: time 7 day
[11] = system: Mus musculus; assay: Effect on blood lipid level in high-fat diet-induced obese C57BL/6 mouse assessed as triglyceride level at 200 mg/kg, IG for 7 days (reference value: 2.07 mmol/L); assay type: functional; conditions: time 7 day
[12] = system: Mus musculus; assay: Effect on exercise tolerance in normal diet-fed C57BL/6 mouse assessed as total running distance at 200 mg/kg, IG for 3 days (reference value: 2183.20 meter); assay type: functional; conditions: time 3 day
[13] = system: Mus musculus; assay: Effect on exercise tolerance in normal diet-fed C57BL/6 mouse assessed as total running time at 200 mg/kg, IG for 3 days (reference value: 7002.00 sec); assay type: functional; conditions: time 3 day
[14] = Metabolic stability in human liver microsomes assessed as compound remaining at 1 uM measured immediately in presence of NADPH/UDPGA by LC-MS/MS analysis; assay type: ADME, Microsome; conditions: read-out: Stability
[15] = Metabolic stability in human liver microsomes assessed as compound remaining at 1 uM measured after 15 mins in presence of NADPH/UDPGA by LC-MS/MS analysis; assay type: ADME, Microsome; conditions: read-out: Stability
[16] = Metabolic stability in human liver microsomes assessed as compound remaining at 1 uM measured after 30 mins in presence of NADPH/UDPGA by LC-MS/MS analysis; assay type: ADME, Microsome; conditions: read-out: Stability
[17] = Metabolic stability in human liver microsomes assessed as compound remaining at 1 uM measured after 45 mins in presence of NADPH/UDPGA by LC-MS/MS analysis; assay type: ADME, Microsome; conditions: read-out: Stability
[18] = Metabolic stability in human liver microsomes assessed as compound remaining at 1 uM measured after 60 mins in presence of NADPH/UDPGA by LC-MS/MS analysis; assay type: ADME, Microsome; conditions: read-out: Stability
[19] = Metabolic stability in human liver microsomes assessed as compound remaining at 1 uM measured immediately by LC-MS/MS analysis; assay type: ADME, Microsome; conditions: read-out: Stability
[20] = Metabolic stability in human liver microsomes assessed as compound remaining at 1 uM measured after 15 mins by LC-MS/MS analysis; assay type: ADME, Microsome; conditions: read-out: Stability
[21] = Metabolic stability in human liver microsomes assessed as compound remaining at 1 uM measured after 30 mins by LC-MS/MS analysis; assay type: ADME, Microsome; conditions: read-out: Stability
[22] = Metabolic stability in human liver microsomes assessed as compound remaining at 1 uM measured after 45 mins by LC-MS/MS analysis; assay type: ADME, Microsome; conditions: read-out: Stability
[23] = Metabolic stability in human liver microsomes assessed as compound remaining at 1 uM measured after 60 mins by LC-MS/MS analysis; assay type: ADME, Microsome; conditions: read-out: Stability

Structure (SMILES): O=C(C1CC1)N1CCC(CN(Cc2ccc([N+](=O)[O-])s2)Cc2c(F)cccc2Cl)C1 (stereo not drawn)
- Ratio [1]: 30.2%

Structure (SMILES): CC1CCC(N(Cc2ccc([N+](=O)[O-])s2)CC2CCN(C(=O)OC(C)(C)C)C2)CC1 (stereo not drawn)
- Ratio [1]: 26.8%

Structure (SMILES): COc1ccc(CN(Cc2ccc([N+](=O)[O-])s2)CC2CCN(C(=O)C3CC3)C2)cc1OC (stereo not drawn)
- Ratio ([1]; filed as agonist): 43.4%
- CC50 [2]: 32 µM

Structure (SMILES): O=C(NS(=O)(=O)N1CCC(CN(Cc2ccc(Cl)cc2)Cc2ccc([N+](=O)[O-])s2)C1)OCC1CC1 (stereo not drawn)
- Ratio ([1]; filed as agonist): 63%

Structure (SMILES): COc1ccccc1CN(Cc1ccc([N+](=O)[O-])s1)CC1CCN(C(=O)C2CC2)C1 (stereo not drawn)
- Ratio [1]: 5.77%
- CC50 [2]: 38.5 µM

- EC50 [3]: 8.88 µM
Structure (SMILES): O=C(Cc1cccs1)N1CCC(CN(Cc2ccc(Cl)cc2)Cc2ccc([N+](=O)[O-])s2)C1 (stereo not drawn)
- Ratio ([1]; filed as agonist): 121%
- Time [4]: 3726.88 s
- Activity [5]: 686.85 m

- EC50 [3]: 9.21 µM
Structure (SMILES): O=C(C1CCC1)N1CCC(CN(Cc2ccc(Cl)cc2)Cc2ccc([N+](=O)[O-])s2)C1 (stereo not drawn)
- Ratio ([1]; filed as agonist): 116%
- Time [4]: 3159 s
- Activity [5]: 572.8 m

- EC50 [3]: 8.57 µM
- half-life at 1 µM [6]: 2.23 min
- microsomal CLint at 1 µM [7]: 622 µL/min/mg
- hepatic extraction ratio at 1 h, 1 µM [8]: 0.97
- remaining at 0 min, 1 µM [14]: 100%
- remaining at 0.25 h, 1 µM [15]: 0.94%
- remaining at 0.5 h, 1 µM [16]: 0.04%
- remaining at 0.75 h, 1 µM [17]: 0.08%
- remaining at 1 h, 1 µM [18]: 0.06%
- remaining at 0 min, 1 µM [19]: 100%
- remaining at 0.25 h, 1 µM [20]: 85.6%
- remaining at 0.5 h, 1 µM [21]: 98.5%
- remaining at 0.75 h, 1 µM [22]: 85.6%
- remaining at 1 h, 1 µM [23]: 103%
Structure (SMILES): CCOC(=O)N1CCC(CN(Cc2ccc(Cl)cc2)Cc2ccc([N+](=O)[O-])s2)C1 (stereo not drawn) [SR9009]
- CC50 [2]: 38.5 µM
- Time [4]: 5428.38 s
- Activity [5]: 1177.69 m
- Activity [9]: 9.46 mmol/L
- Activity [10]: 4.03 mmol/L
- Activity [11]: 1.07 mmol/L
- Activity [12]: 3121.42 m
- Time [13]: 9908.5 s

Structure (SMILES): CC(F)C(=O)N1CCC(CN(Cc2ccc(Cl)cc2)Cc2ccc([N+](=O)[O-])s2)C1 (stereo not drawn)
- Ratio ([1]; filed as agonist): 85.4%

- EC50 [3]: 4.93 µM
- half-life at 1 µM [6]: 2.3 min
- microsomal CLint at 1 µM [7]: 601 µL/min/mg
- hepatic extraction ratio at 1 h, 1 µM [8]: 0.97
- remaining at 0 min, 1 µM [14]: 100%
- remaining at 0.25 h, 1 µM [15]: 1.1%
- remaining at 0.5 h, 1 µM [16]: 0.23%
- remaining at 0.75 h, 1 µM [17]: 0.16%
- remaining at 1 h, 1 µM [18]: 0.07%
- remaining at 0 min, 1 µM [19]: 100%
- remaining at 0.25 h, 1 µM [20]: 106%
- remaining at 0.5 h, 1 µM [21]: 103%
- remaining at 0.75 h, 1 µM [22]: 105%
- remaining at 1 h, 1 µM [23]: 108%
Structure (SMILES): O=C(C1CC1)N1CCC(CN(Cc2ccc([N+](=O)[O-])s2)Cc2ccc(F)cc2F)C1 (stereo not drawn)
- Ratio ([1]; filed as agonist): 98.2%
- CC50 [2]: 38.5 µM
- Time [4]: 5805 s
- Activity [5]: 1042.52 m
- Activity [9]: 6.79 mmol/L
- Activity [10]: 3.83 mmol/L
- Activity [11]: 1.04 mmol/L
- Activity [12]: 2843.74 m
- Time [13]: 9087.88 s

- EC50 [3]: 8.65 µM
Structure (SMILES): C=CC(=O)N1CCC(CN(Cc2ccc(Cl)cc2)Cc2ccc([N+](=O)[O-])s2)C1 (stereo not drawn)
- Ratio ([1]; filed as agonist): 125%
- Time [4]: 4516.75 s
- Activity [5]: 910.9 m

Structure (SMILES): COc1cccc(CN(Cc2ccc([N+](=O)[O-])s2)CC2CCN(C(=O)C3CC3)C2)c1 (stereo not drawn)
- Ratio ([1]; filed as agonist): 64.5%
- CC50 [2]: 15.4 µM

Structure (SMILES): O=C(C1CC1)N1CCC(CN(Cc2ccc3c(c2)OCO3)Cc2ccc([N+](=O)[O-])s2)C1 (stereo not drawn)
- Ratio ([1]; filed as agonist): 70.7%
- CC50 [2]: 15.4 µM

- EC50 [3]: 8.29 µM
Structure (SMILES): O=C(c1ccc(Br)o1)N1CCC(CN(Cc2ccc(Cl)cc2)Cc2ccc([N+](=O)[O-])s2)C1 (stereo not drawn)
- Ratio ([1]; filed as agonist): 120%
- Time [4]: 4130 s
- Activity [5]: 797.96 m

Structure (SMILES): O=C(C1CC1)N1CCC(CN(Cc2cc(Cl)cc(Cl)c2)Cc2ccc([N+](=O)[O-])s2)C1 (stereo not drawn)
- Ratio ([1]; filed as agonist): 64.7%
- CC50 [2]: 12.8 µM

Structure (SMILES): O=C(C1CC1)N1CCC(CN(Cc2cccc(Cl)c2)Cc2ccc([N+](=O)[O-])s2)C1 (stereo not drawn)
- Ratio ([1]; filed as agonist): 51%
- CC50 [2]: 22.2 µM

- EC50 [3]: 5.99 µM
- half-life at 1 µM [6]: 3.37 min
- microsomal CLint at 1 µM [7]: 411 µL/min/mg
- hepatic extraction ratio at 1 h, 1 µM [8]: 0.96
- remaining at 0 min, 1 µM [14]: 100%
- remaining at 0.25 h, 1 µM [15]: 4.6%
- remaining at 0.5 h, 1 µM [16]: 0.91%
- remaining at 0.75 h, 1 µM [17]: 0.3%
- remaining at 1 h, 1 µM [18]: 0.15%
- remaining at 0 min, 1 µM [19]: 100%
- remaining at 0.25 h, 1 µM [20]: 93.2%
- remaining at 0.5 h, 1 µM [21]: 108%
- remaining at 0.75 h, 1 µM [22]: 93.3%
- remaining at 1 h, 1 µM [23]: 90.1%
Structure (SMILES): O=C(C1CC1)N1CCC(CN(Cc2ccc(Cl)c(Cl)c2)Cc2ccc([N+](=O)[O-])s2)C1 (stereo not drawn)
- Ratio ([1]; filed as agonist): 84.8%
- CC50 [2]: 10.7 µM
- Time [4]: 5011.38 s
- Activity [5]: 1061.4 m
- Activity [9]: 6.82 mmol/L
- Activity [10]: 4.5 mmol/L
- Activity [11]: 1.12 mmol/L
- Activity [12]: 3115.39 m
- Time [13]: 10034.25 s

Structure (SMILES): O=C(CC1CC1)N1CCC(CN(Cc2ccc(Cl)cc2)Cc2ccc([N+](=O)[O-])s2)C1 (stereo not drawn)
- Ratio ([1]; filed as agonist): 73.2%

Structure (SMILES): C=CC(=O)N1CCC(CN(Cc2ccc(F)cc2)Cc2ccc([N+](=O)[O-])s2)C1 (stereo not drawn)
- Ratio ([1]; filed as agonist): 61.2%

Structure (SMILES): O=C(C1CC1)N1CCC(CN(Cc2ccc(Cl)cc2)Cc2ccc([N+](=O)[O-])s2)C1 (stereo not drawn)
- Ratio ([1]; filed as agonist): 55%

- EC50 [3]: 8.31 µM
Structure (SMILES): O=C(C1CC1)N1CCC(CN(Cc2ccc([N+](=O)[O-])s2)Cc2ccc(F)cc2Cl)C1 (stereo not drawn)
- Ratio ([1]; filed as agonist): 89.4%
- CC50 [2]: 38.5 µM

- EC50 [3]: 7.15 µM
Structure (SMILES): O=C(c1ccco1)N1CCC(CN(Cc2ccc(Cl)cc2)Cc2ccc([N+](=O)[O-])s2)C1 (stereo not drawn)
- Ratio ([1]; filed as agonist): 126%
- Time [4]: 4165.38 s
- Activity [5]: 836.67 m

Structure (SMILES): O=C(NS(=O)(=O)N1CCC(CN(Cc2ccc(Cl)cc2)Cc2ccc([N+](=O)[O-])s2)C1)OCC1CCCC1 (stereo not drawn)
- Ratio [1]: 34.3%

Structure (SMILES): O=C(C1CC1)N1CCC(CN(Cc2cccc(Br)c2)Cc2ccc([N+](=O)[O-])s2)C1 (stereo not drawn)
- Ratio ([1]; filed as agonist): 89.8%
- CC50 [2]: 15.4 µM
